Source: patent EP0475531A1, “Benzoic acid phenylester compounds and elastase inhibiting compositions containing the same” (Asahi Kasei Kogyo Kabushiki Kaisha, priority 1990, dated 1992)

What follows are molecules tested against T1, human leukocyte elastase (Homo sapiens, UniProt P08246) (assay: in vitro human leukocyte elastase inhibiting activity (fluorogenic substrate, method of JP-A-2-101017 with slight modification)). Conditions: not given.
T1 sequence (P08246 30-267): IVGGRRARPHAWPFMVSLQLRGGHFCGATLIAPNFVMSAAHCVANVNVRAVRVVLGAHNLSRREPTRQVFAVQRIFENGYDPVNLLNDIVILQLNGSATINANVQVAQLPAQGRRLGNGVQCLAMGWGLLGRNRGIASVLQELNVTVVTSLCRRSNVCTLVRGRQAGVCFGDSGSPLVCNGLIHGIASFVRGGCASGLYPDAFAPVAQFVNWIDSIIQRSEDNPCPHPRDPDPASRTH
Type: biochemical
Protocol: Thus, methoxysuccinyl-Ala-Ala-Pro-Val-7-amido-4-methylcoumarin was used as a substrate for human leukocyte elastase and the 50% inhibitory concentration (IC₅₀) was measured. The enzymatic reaction was carried out in 0.2 M Tris-hydrochloride buffer (containing 0.02 M CaCl₂ and 0.005% Triton X-100) at pH 7.2. Each mixture of test compound solution and the enzyme solution was incubated at 25°C for 20 minutes.
In the case of CC(C)C(=O)Nc1ccc(C(=O)Oc2cc([N+](=O)[O-])ccc2[N+](=O)[O-])cc1 [Compound 50, 2,5-dinitrophenyl 4-(isobutanoylamino)benzoate], the IC50 is reported as 4.7 nM.

Same assay, conditions: 50% inhibitory concentration; substrate methoxysuccinyl-Ala-Ala-Pro-Val-7-amido-4-methylcoumarin; 0.2 M Tris-hydrochloride buffer (0.02 M CaCl2, 0.005% Triton X-100), pH 7.2; compound and enzyme incubated at 25°C for 20 minutes; read-out: IC50
For CC(C)C(=O)Nc1ccc(C(=O)Oc2cc(Cl)cc(OC(=O)C3CCCCC3)c2)cc1 [Compound 79, 3-chloro-5-(cyclohexanecarbonyloxy)phenyl 4-(isobutanoylamino)benzoate], the IC50 was 110 nM. O=C(Oc1cc(Cl)cc(Cl)c1)c1ccc(NC(=O)C2CCC2)cc1 [Compound 16, 3,5-dichlorophenyl 4-(cyclobutanecarbonylamino)benzoate] gave an IC50 of 9.2 nM. For O=C(Oc1cc(Cl)cc(Cl)c1)c1ccc(NC(=O)C(F)(F)C(F)(F)F)cc1 [Compound 12, 3,5-dichlorophenyl 4-(pentafluoropropanoylamino)benzoate], the IC50 was 10 nM. CC(C)(C)C(=O)Nc1ccc(C(=O)Oc2cc(Cl)cc(OC(=O)C3CC3)c2)cc1 [Compound 57, 3-chloro-5-(cyclopropanecarbonyloxy)phenyl 4-(pivaloylamino)benzoate] gave an IC50 of 2.9 nM. In the case of CNC(=O)Nc1ccc(C(=O)Oc2cc(Cl)cc(Cl)c2)cc1 [Compound 26, 3,5-dichlorophenyl 4-(3-methylureido)benzoate], the IC50 is reported as 47 nM. Work on O=C(O)CCC(=O)Nc1ccc(C(=O)Oc2cc(Cl)cc(Cl)c2)cc1 [Compound 22, 3,5-dichlorophenyl 4-(succinylamino)benzoate] yielded an IC50 of 23 nM. COc1cc(OC)cc(OC(=O)c2ccc(NC(=O)C(C)C)cc2)c1 [Compound 91, 3,5-dimethoxyphenyl 4-(isobutanoylamino)benzoate] gave an IC50 of 300 nM. CC(=O)Oc1cc(Cl)cc(OC(=O)c2ccc(NC(=O)C(C)C)cc2)c1 [Compound 74, 3-acetoxy-5-chlorophenyl 4-(isobutanoylamino)benzoate] was tested, and the IC50 was 3.3 nM. C=C(C)C(=O)Nc1ccc(C(=O)Oc2cc(Cl)cc(Cl)c2)cc1 [Compound 14, 3,5-dichlorophenyl 4-(2-methylpropenoylamino)benzoate] showed an IC50 of 3.5 nM. Work on COc1ccc(COC(=O)c2ccc([N+](=O)[O-])c(OC(=O)c3ccc(NC(=O)C(C)C)cc3)c2)cc1 [Compound 56] yielded an IC50 of 8.4 nM. For CC1(C(=O)Nc2ccc(C(=O)Oc3cc(Cl)cc(Cl)c3)cc2)CC1 [Compound 1, 3,5-dichlorophenyl 4-(1-methylcyclopropanecarbonylamino)benzoate], the IC50 was 37 nM. For CC(=O)OC(=O)Nc1ccc(C(=O)Oc2cc(Cl)cc(Cl)c2)cc1 [Compound 36, 3,5-dichlorophenyl 4-(acetoxycarbonylamino)benzoate], the IC50 was 31 nM. Molecule O=C(Nc1ccc(C(=O)Oc2cc(Cl)cc(Cl)c2)cc1)OCCO [Compound 35, 3,5-dichlorophenyl 4-(2-hydroxyethoxycarbonylamino)benzoate] has an IC50 of 38 nM. CC(C)(C)C(=O)Nc1ccc(C(=O)Oc2cc(Cl)cc(Cl)c2)cc1 [Compound 8, 3,5-dichlorophenyl 4-(pivaloylamino)benzoate] showed an IC50 of 6.4 nM. Molecule O=C(Nc1ccc(C(=O)Oc2cc(Cl)cc(Cl)c2)cc1)OCc1ccccc1 [Compound 34, 3,5-dichlorophenyl 4-(benzyloxycarbonylamino)benzoate] has an IC50 of 260 nM. CC(C)C(=O)Nc1ccc(C(=O)Oc2cc(Cl)cc(OS(=O)(=O)c3cccs3)c2)cc1 [Compound 87, 3-chloro-5-(2-thiophenesulfonyloxy)phenyl 4-(isobutanoylamino)benzoate] showed an IC50 of 19 nM. CC(C)C(=O)Nc1ccc(C(=O)Oc2cccc(O)c2[N+](=O)[O-])cc1 [Compound 49, 5-hydroxy-6-nitrophenyl 4-(isobutanoylamino)benzoate] gave an IC50 of 180 nM. CCC(=O)Oc1cc(Cl)cc(OC(=O)c2ccc(NC(=O)C(C)C)cc2)c1 [Compound 75, 3-chloro-5-propanoyloxyphenyl 4-(isobutanoylamino)benzoate] showed an IC50 of 2.5 nM. CC(C)C(=O)Nc1ccc(C(=O)Oc2ccccc2[N+](=O)[O-])cc1 [Compound 48, 6-nitrophenyl 4-(isobutanoylamino)benzoate] showed an IC50 of 16 nM. With CC(C)(C)OC(=O)Nc1ccc(C(=O)Oc2cc(C=O)ccc2[N+](=O)[O-])cc1 [Compound 47, 3-formyl-6-nitrophenyl 4-(tert-butoxycarbonylamino)benzoate] the IC50 was 3.8 nM. CC(C)C(=O)Nc1ccc(C(=O)Oc2cc(C(=O)O)ccc2[N+](=O)[O-])cc1 [Compound 54, 3-hydroxycarbonyl-6-nitrophenyl 4-(isobutanoylamino)benzoate] was tested, and the IC50 was 2.1 nM. COC(=O)c1ccc(Cl)cc1OC(=O)c1ccc(NC(=O)C(C)C)cc1 [Compound 63, 3-chloro-6-(methoxycarbonyl)phenyl 4-(isobutanoylamino)benzoate] gave an IC50 of 97 nM. In the case of COC(=O)c1ccc([N+](=O)[O-])c(OC(=O)c2ccc(NC(=O)C(C)C)cc2)c1 [Compound 55, 3-methoxycarbonyl-6-nitrophenyl 4-(isobutanoylamino)benzoate], the IC50 is reported as 3.6 nM. CC(C)C(=O)Nc1ccc(C(=O)Oc2cc(Cl)cc(OCc3ccccc3)c2)cc1 [Compound 88, 3-benzyloxy-5-chlorophenyl 4-(isobutanoylamino)benzoate] gave an IC50 of 48 nM. For CC(C)C(=O)Nc1ccc(C(=O)Oc2cc(Cl)cc(OS(=O)(=O)c3ccccc3)c2)cc1 [Compound 85, 3-benzenesulfonyloxy-5-chlorophenyl 4-(isobutanoylamino)benzoate], the IC50 was 24 nM. Molecule CC(C)C(=O)Nc1ccc(C(=O)Oc2c(F)cccc2F)cc1 [Compound 69, 2,6-difluorophenyl 4-(isobutanoylamino)benzoate] has an IC50 of 25 nM. Molecule CC(C)C(=O)Nc1ccc(C(=O)Oc2cccc(F)c2)cc1 [Compound 71, 3-fluorophenyl 4-(isobutanoylamino)benzoate] has an IC50 of 310 nM. In the case of CCCCCC(=O)Nc1ccc(C(=O)Oc2cc(Cl)cc(Cl)c2)cc1 [Compound 5, 3,5-dichlorophenyl 4-(hexanoylamino)benzoate], the IC50 is reported as 37 nM. With CC(C)C(=O)Nc1ccc(C(=O)Oc2cccc(F)c2F)cc1 [Compound 67, 2,3-difluorophenyl 4-(isobutanoylamino)benzoate] the IC50 was 88 nM. CC(C)C(=O)Nc1ccc(C(=O)Oc2cc(Cl)cc(OC(=O)C3CC3)c2)cc1 [Compound 77, 3-chloro-5-(cyclopropanecarbonyloxy)phenyl 4-(isobutanoylamino)benzoate] was tested, and the IC50 was 3.8 nM. Work on CC(C)C(=O)Nc1ccc(C(=O)Oc2cc(C=O)ccc2[N+](=O)[O-])cc1 [Compound 53, 3-formyl-6-nitrophenyl 4-(isobutanoylamino)benzoate] yielded an IC50 of 3.4 nM. In the case of CC(C)C(=O)Nc1ccc(C(=O)Oc2cc(Cl)ccc2C#N)cc1 [Compound 62, 3-chloro-6-cyanophenyl 4-(isobutanoylamino)benzoate], the IC50 is reported as 1.3 nM. O=C(Oc1cc(Cl)cc(Cl)c1)c1ccc(N2C(=O)CCC2=O)cc1 [Compound 23, 3,5-dichlorophenyl 4-(succinimidyl)benzoate] showed an IC50 of 140 nM. O=C(Oc1cc(Cl)cc(Cl)c1)c1ccc(NC(=O)C2CCCCC2)cc1 [Compound 18, 3,5-dichlorophenyl 4-(cyclohexanecarbonylamino)benzoate] gave an IC50 of 10 nM. With CCC(=O)Nc1ccc(C(=O)Oc2cc(Cl)cc(Cl)c2)cc1 [Compound 2, 3,5-dichlorophenyl 4-(propanoylamino)benzoate] the IC50 was 7 nM. CC(C)(CCl)C(=O)Nc1ccc(C(=O)Oc2cc(Cl)cc(Cl)c2)cc1 [Compound 45, 3,5-dichlorophenyl 4-(3-chloro-2,2-dimethylpropanoylamino)benzoate] gave an IC50 of 18 nM. COc1cc(Cl)cc(OC(=O)c2ccc(NC(=O)C(C)C)cc2)c1 [Compound 90, 3-chloro-5-methoxyphenyl 4-(isobutanoylamino)benzoate] gave an IC50 of 11 nM. In the case of O=C(Cc1ccccc1)Nc1ccc(C(=O)Oc2cc(Cl)cc(Cl)c2)cc1 [Compound 9, 3,5-dichlorophenyl 4-(phenylacetylamino)benzoate], the IC50 is reported as 5.3 nM. For CC(=O)Oc1cc(C#N)cc(OC(=O)c2ccc(NC(=O)C(C)C)cc2)c1 [Compound 93, 3-cyano-5-acetoxyphenyl 4-(isobutanoylamino)benzoate], the IC50 was 36 nM. In the case of CC(C)C(=O)Nc1ccc(C(=O)Oc2cc(C(F)(F)F)cc(C(F)(F)F)c2)cc1 [Compound 64], the IC50 is reported as 220 nM. Molecule O=C(Oc1cc(Cl)cc(Cl)c1)c1ccc(NS(=O)(=O)c2ccccc2)cc1 [Compound 25, 3,5-dichlorophenyl 4-(benzenesulfonylamino)benzoate] has an IC50 of 260 nM. With CCCCNC(=O)Nc1ccc(C(=O)Oc2cc(Cl)cc(Cl)c2)cc1 [Compound 29, 3,5-dichlorophenyl 4-(3-butylureido)benzoate] the IC50 was 20 nM. CC(C)C(=O)Nc1ccc(C(=O)Oc2cc(F)ccc2[N+](=O)[O-])cc1 [Compound 51, 3-fluoro-6-nitrophenyl 4-(isobutanoylamino)benzoate] showed an IC50 of 2.6 nM. Work on CC(C(=O)O)C(C)C(=O)Nc1ccc(C(=O)Oc2cc(Cl)cc(Cl)c2)cc1 (stereo not drawn) [Compound 42, 3,5-dichlorophenyl 4-(meso-2,3-dimethylsuccinylamino)benzoate] yielded an IC50 of 2.1 nM. In the case of CC(C)(CC(=O)Nc1ccc(C(=O)Oc2cc(Cl)cc(Cl)c2)cc1)C(=O)O [Compound 41, 3,5-dichlorophenyl 4-(3,3-dimethylsuccinylamino)benzoate], the IC50 is reported as 47 nM. CC(C)(C(=O)O)C(=O)Nc1ccc(C(=O)Oc2cc(Cl)cc(Cl)c2)cc1 [Compound 40, 3,5-dichlorophenyl 4-(2,2-dimethylmalonylamino)benzoate] gave an IC50 of 3.4 nM.
